Test results taken from patent US8546588B2, “Substituted hydroxamic acids and uses thereof” (Millennium Pharmaceuticals, Inc., priority 2010, dated 2013).

target: T1, purified human HDAC6 (Homo sapiens, UniProt Q9UBN7); test: HDAC6 Enzyme Assay; type: biochemical; conditions: substrate Ac-Arg-Gly-Lys(Ac)-AMC peptide, 1 hour at 30° C.
T1 construct: purchased BPS Bioscience 5006
T1 sequence (Q9UBN7 1-1215): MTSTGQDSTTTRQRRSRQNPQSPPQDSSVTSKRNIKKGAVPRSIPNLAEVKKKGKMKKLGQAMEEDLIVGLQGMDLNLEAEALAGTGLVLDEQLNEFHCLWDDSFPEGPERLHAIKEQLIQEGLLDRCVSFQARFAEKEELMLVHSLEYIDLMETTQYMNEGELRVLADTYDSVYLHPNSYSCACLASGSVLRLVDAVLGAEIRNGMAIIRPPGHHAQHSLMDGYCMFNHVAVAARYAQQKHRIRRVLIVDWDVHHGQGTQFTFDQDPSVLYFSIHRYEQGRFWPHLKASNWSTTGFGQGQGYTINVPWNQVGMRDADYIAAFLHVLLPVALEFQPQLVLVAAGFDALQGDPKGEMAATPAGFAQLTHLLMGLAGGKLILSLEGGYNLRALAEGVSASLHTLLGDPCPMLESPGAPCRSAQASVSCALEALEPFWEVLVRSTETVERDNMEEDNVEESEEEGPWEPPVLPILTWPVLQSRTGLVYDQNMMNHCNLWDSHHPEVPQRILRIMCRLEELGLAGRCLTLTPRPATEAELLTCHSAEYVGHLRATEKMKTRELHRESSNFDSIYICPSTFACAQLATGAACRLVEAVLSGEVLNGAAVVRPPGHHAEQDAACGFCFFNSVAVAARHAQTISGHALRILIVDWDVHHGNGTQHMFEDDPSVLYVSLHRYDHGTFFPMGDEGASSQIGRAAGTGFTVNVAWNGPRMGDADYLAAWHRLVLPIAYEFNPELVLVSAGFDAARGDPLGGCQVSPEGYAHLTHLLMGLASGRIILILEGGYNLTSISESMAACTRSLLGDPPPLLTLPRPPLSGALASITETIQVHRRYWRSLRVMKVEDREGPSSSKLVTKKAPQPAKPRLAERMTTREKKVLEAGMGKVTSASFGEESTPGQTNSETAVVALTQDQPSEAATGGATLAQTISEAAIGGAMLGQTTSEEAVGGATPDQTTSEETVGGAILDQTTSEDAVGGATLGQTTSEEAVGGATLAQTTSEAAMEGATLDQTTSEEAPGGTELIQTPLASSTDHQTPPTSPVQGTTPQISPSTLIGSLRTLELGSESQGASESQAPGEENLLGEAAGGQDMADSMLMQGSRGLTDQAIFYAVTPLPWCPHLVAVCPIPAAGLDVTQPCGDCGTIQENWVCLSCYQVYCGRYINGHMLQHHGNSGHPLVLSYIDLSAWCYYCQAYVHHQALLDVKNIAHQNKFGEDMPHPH
Procedure: To measure the inhibition of HDAC6 activity, purified human HDAC6 (BPS Bioscience; Cat. No. 5006) is incubated with substrate Ac-Arg-Gly-Lys(Ac)-AMC peptide (Bachem Biosciences; Cat. No. I-1925) for 1 hour at 30° C. in the presence of test compounds or vehicle DMSO control. The reaction is stopped with the HDAC inhibitor trichostatin A (Sigma; Cat. No. T8552) and the amount of Arg-Gly-Lys-AMC generated is quantitated by digestion with trypsin (Sigma; Cat. No. T1426) and subsequent measurement of the amount of AMC released using a fluorescent plate reader (Pherastar; BMG Technologies) set at Ex 340 nm and Em 460 nm. Concentration response curves are generated by calculating the fluorescence increase in test compound-treated samples relative to DMSO-treated controls, and enzyme inhibition (IC50) values are determined from those curves.

SMILES	IC50 [nM]
C[C@H](NC(=O)c1nc2ccccc2n1C)c1ncc(C(=O)NO)s1 [Compound I-173, N-((1S)-1-{5-[(hydroxyamino)carbonyl]-1,3-thiazol-2-yl}ethyl)-1-methyl-1H-benzimidazole-2-carboxamide]	< 100
Cc1c(C(=O)N[C@H](C)c2ccc(C(=O)NO)s2)sc2ccccc12 [Compound I-31, N-((1R)-1-{5-[(hydroxyamino)carbonyl]-2-thienyl}ethyl)-3-methyl-1-benzothiophene-2-carboxamide]	< 100
CC(NC(=O)NC1CCCC1)c1ccc(C(=O)NO)s1 (stereo not shown) [Compound I-1, 5-(1-(3-cyclopentylureido)ethyl)-N-hydroxythiophene-2-carboxamide]	< 100
CC(NC(=O)NC(C)(C)C)c1ccc(C(=O)NO)s1 (stereo not shown) [Compound I-34, 5-(1-{[(tert-butylamino)carbonyl]amino}ethyl)-N-hydroxythiophene-2-carboxamide]	100 to 500
C[C@H](NC(=O)C1(C)CCCCC1)c1ncc(C(=O)NO)s1 [Compound I-171, N-hydroxy-2-((1S)-1-{[(1-methylcyclohexyl)carbonyl]amino}ethyl)-1,3-thiazole-5-carboxamide]	> 500
C[C@@H](NS(=O)(=O)c1ccc(C(F)(F)F)cc1)c1ccc(C(=O)NO)s1 [Compound I-23, N-hydroxy-5-[(1R)-1-({[4-(trifluoromethyl)phenyl]sulfonyl}amino)ethyl]thiophene-2-carboxamide]	100 to 500
Cc1c(C(=O)N[C@H](C)c2ccc(C(=O)NO)s2)oc2ccccc12 [Compound I-15, N-((1R)-1-{5-[(hydroxyamino)carbonyl]-2-thienyl}ethyl)-3-methyl-1-benzofuran-2-carboxamide]	< 100
CC(NC(=O)NC(C)c1ccc(C(=O)NO)s1)c1ccccc1 (stereo not shown) [Compound I-28, N-hydroxy-5-[1-({[(1-phenylethyl)amino]carbonyl}amino)ethyl]thiophene-2-carboxamide]	100 to 500
CC(NC(=O)c1cc2cc(Cl)ccc2o1)c1ncc(C(=O)NO)s1 (stereo not shown) [Compound I-50, 2-(1-{[(5-chloro-1-benzofuran-2-yl)carbonyl]amino}ethyl)-N-hydroxy-1,3-thiazole-5-carboxamide]	< 100
CC(NC(=O)C(C)(C)C)c1ncc(C(=O)NO)s1 (stereo not shown) [Compound I-53, 2-{1-[(2,2-dimethylpropanoyl)amino]ethyl}-N-hydroxy-1,3-thiazole-5-carboxamide]	> 500
C[C@@H](NC(=O)c1cc2ccccc2o1)c1ccc(C(=O)NO)s1 [Compound I-39, N-((1R)-1-{5-[(hydroxyamino)carbonyl]-2-thienyl}ethyl)-1-benzofuran-2-carboxamide]	< 100
C[C@@H](NC(=O)c1cccn1C)c1ccc(C(=O)NO)s1 [Compound I-29, N-((1R)-1-{5-[(hydroxyamino)carbonyl]-2-thienyl}ethyl)-1-methyl-1H-pyrrole-2-carboxamide]	< 100
C[C@@H](NC(=O)C1(C)CCCCC1)c1ccc(C(=O)NO)s1 [Compound I-43, N-hydroxy-5-((1R)-1-{[(1-methylcyclohexyl)carbonyl]amino}ethyl)thiophene-2-carboxamide]	> 500
C[C@@H](NC(=O)c1cccn1C)c1ncc(C(=O)NO)s1 [Compound I-174, N-hydroxy-2-((1R)-1-{[(1-methyl-1H-pyrrol-2-yl)carbonyl]amino}ethyl)-1,3-thiazole-5-carboxamide]	100 to 500
CC(NC(=O)C1(c2ccc(Cl)cc2)CCC1)c1ncc(C(=O)NO)s1 (stereo not shown) [Compound I-55, 2-[1-({[1-(4-chlorophenyl)cyclobutyl]carbonyl}amino)ethyl]-N-hydroxy-1,3-thiazole-5-carboxamide]	> 500
Cc1nc(-c2ccccn2)sc1C(=O)N[C@H](C)c1ncc(C(=O)NO)s1 [Compound I-167, N-((1R)-1-{5-[(hydroxyamino)carbonyl]-1,3-thiazol-2-yl}ethyl)-4-methyl-2-pyridin-2-yl-1,3-thiazole-5-carboxamide]	< 100
CC(NC(=O)c1cc2ccccc2s1)c1ncc(C(=O)NO)s1 (stereo not shown) [Compound I-54, 2-{1-[(1-benzothien-2-ylcarbonyl)amino]ethyl}-N-hydroxy-1,3-thiazole-5-carboxamide]	< 100
C[C@@H](NC(=O)C(C)(C)C)c1ccc(C(=O)NO)s1 [Compound I-6, 5-{(1R)-1-[(2,2-dimethylpropanoyl)amino]ethyl}-N-hydroxythiophene-2-carboxamide]	> 500
CC(NC(=O)NC1CCCCC1)c1ccc(C(=O)NO)s1 (stereo not shown) [Compound I-24, 5-(1-{[(cyclohexylamino)carbonyl]amino}ethyl)-N-hydroxythiophene-2-carboxamide]	100 to 500
C[C@@H](NC(=O)c1ccc(-c2ccccc2)cc1)c1ccc(C(=O)NO)s1 [Compound I-46, 5-{(1R)-1-[(biphenyl-4-ylcarbonyl)amino]ethyl}-N-hydroxythiophene-2-carboxamide]	< 100

The remaining lines, values ahead:

IC50 [nM]	SMILES
100 to 500	CC(NC(=O)Nc1c(F)cccc1F)c1ccc(C(=O)NO)s1 (stereo not shown) [Compound I-20, 5-[1-({[(2,6-difluorophenyl)amino]carbonyl}amino)ethyl]-N-hydroxythiophene-2-carboxamide]
< 100	CC(NC(=O)Nc1ccc(F)cc1)c1ccc(C(=O)NO)s1 (stereo not shown) [Compound I-2, 5-[1-({[(4-fluorophenyl)amino]carbonyl}amino)ethyl]-N-hydroxythiophene-2-carboxamide]
< 100	CC(NC(=O)Nc1ccc(OC(F)F)cc1)c1ccc(C(=O)NO)s1 (stereo not shown) [Compound I-37, 5-{1-[({[4-(difluoromethoxy)phenyl]amino}carbonyl)amino]ethyl}-N-hydroxythiophene-2-carboxamide]
< 100	Cc1cccc(NC(=O)NC(C)c2ccc(C(=O)NO)s2)c1 (stereo not shown) [Compound I-30, N-hydroxy-5-[1-({[(3-methylphenyl)amino]carbonyl}amino)ethyl]thiophene-2-carboxamide]
< 100	CC(NC(=O)Nc1ccc(C(C)(C)C)cc1)c1ccc(C(=O)NO)s1 (stereo not shown) [Compound I-36, 5-[1-({[(4-tert-butylphenyl)amino]carbonyl}amino)ethyl]-N-hydroxythiophene-2-carboxamide]
< 100	COc1ccc(C)cc1NC(=O)NC(C)c1ccc(C(=O)NO)s1 (stereo not shown) [Compound I-19, N-hydroxy-5-[1-({[(2-methoxy-5-methylphenyl)amino]carbonyl}amino)ethyl]thiophene-2-carboxamide]
< 100	Cc1ccccc1NC(=O)NC(C)c1ccc(C(=O)NO)s1 (stereo not shown) [Compound I-40, N-hydroxy-5-[1-({[(2-methylphenyl)amino]carbonyl}amino)ethyl]thiophene-2-carboxamide]
< 100	CC(NC(=O)Nc1cccc(C(F)(F)F)c1)c1ccc(C(=O)NO)s1 (stereo not shown) [Compound I-3, N-hydroxy-5-{1-[({[3-(trifluoromethyl)phenyl]amino}carbonyl)amino]ethyl}thiophene-2-carboxamide]
< 100	Cc1ccc(NC(=O)NC(C)c2ccc(C(=O)NO)s2)cc1C (stereo not shown) [Compound I-38, 5-[1-({[(3,4-dimethylphenyl)amino]carbonyl}amino)ethyl]-N-hydroxythiophene-2-carboxamide]
< 100	CC(NC(=O)Nc1ccccc1)c1ccc(C(=O)NO)s1 (stereo not shown) [Compound I-12, 5-{1-[(anilinocarbonyl)amino]ethyl}-N-hydroxythiophene-2-carboxamide]
100 to 500	Cc1cccc(C)c1NC(=O)NC(C)c1ccc(C(=O)NO)s1 (stereo not shown) [Compound I-32, 5-[1-({[(2,6-dimethylphenyl)amino]carbonyl}amino)ethyl]-N-hydroxythiophene-2-carboxamide]
